Data on one compound can be found in patent US20200276181A1, “THIENOISOQUINOLINES AND THEIR DERIVATIVES FOR TARGETING TUBULIN, CH-TOG, AURORA A KINASE, TPX2, CDK5RAP2 AND/OR ASPM” (VALORBEC, SEC, priority 2017, published 2020).

One test deals with HFF1 (non-cancer) cells. Kind of test: Percentage of mitotic cells, nocodazole +/- C75. The test is classed as cell-based. The note with it: 200 nM C75 + 33 or 66 nM nocodazole. How it is done:
FIG. 3A) is a line graph showing cytotoxicity of HeLa cells after treatment with varying concentrations of C75+/−a subthreshold dose of paclitaxel (Taxol™; 3 nM). The IC50 is shown by the dotted line. Bars show standard deviation. […] The bars indicate standard deviation. FIG. 3C) is a series of bar graphs showing the proportion of HCT 116 cells with bipolar aligned (grey), bipolar misaligned (dark grey), multipolar/fragmented (light grey, top portion of each bar) or monopolar (black) spindles 7 hours after treatment with control (DMSO), varying concentrations of paclitaxel or C75, or both as indicated (n=691; N=3). The bars show standard deviation. The combination treatments were compared to paclitaxel and C75 on their own by calculating ratios varying from the predicted ratio, and found to synergize at 100 and 200 nM. FIG. 3D) is bar graph showing the average distance between centrosome fragments in HCT116 cells after treatments as shown. While centrosome fragments moved closer together with increased concentrations of paclitaxel, they moved further apart with increased concentrations of C75 (n=105; N=3). […] FIG. 3F) is a line graph showing the percentage of mitotic HeLa or HFF1 cells treated with a range of nocodazole concentrations+/−C75 as indicated. The bars indicate standard deviation. […]

The subject of a further test is HeLa cells in metaphase. Kind of test: Short treatment and washout, spindle recovery. The test is classed as cell-based, human. The note with it: 5 minutes treatment, washout, imaged after 40 minutes. An excerpt: For each condition, 20,000 cells were counted per replicate (N=3). Line graphs (right) were made to better illustrate the relative changes in the cell cycle phases for the different treatments. Bars show standard deviation. The asterisks indicate the first statistically significant change in the G0/G1 and G2/M populations determined by a two-way ANOVA with a post-hoc Tukey's multiple comparisons test using 95% confidence intervals. FIG. 2B) is a line graph showing the percentage of HCT116 (p53−/−) cells, A549 cells, HeLa cells and H1299 cells in mitosis after treatment with various concentrations of C75 for one population doubling time. All of the cell lines show an increase in the proportion of mitotic cells after treatment with 200 nM C75. The bars indicate standard deviation. […]
C75 was also tested for efficacy in different cancer cell lines. […] To further assess the role of C75 in disrupting spindles, HeLa cells were treated with 300 nM C75 for 4 hours and the spindle phenotypes were analyzed in more detail (FIG. 2E). […] To assess the affect of C75 on centrosomes, HeLa cells were treated with C75 or nocodazole (a drug that causes microtubule depolymerization as a control) for a short period of time (5 minutes), then the drugs were removed and the cells were analyzed for spindle phenotypes (schematic in FIG. 2G). […]

On to `COc1ccc(S(=O)(=O)N2Cc3ccccc3-c3sc(Br)cc32)cc1` [Compound C75], for which, in the test on HFF1 (non-cancer) cells, the “change in proportion of mitotic cells” value is given as “no change”. The “spindles reformed after drug removal” value in the test on HeLa cells in metaphase is listed as “tri- or multipolar spindles formed”.
